Patent US10744084B2, “Non-specific delayed-type hypersensitivity response to treat herpes simplex virus infection” (Squarex, LLC, priority 2007, dated 2020)

Key:
warts = settings: intralesional injection together with antigens; differences not statistically significant; cited from earlier work
herpes labialis = test: Treatment of herpes labialis by squaric acid dibutyl ester (thirty patients, subject diaries); type: in vivo, human; settings: sensitizing dose 2% SADBE in DMSO, then two treatments on lesions in the next two outbreaks
Description: Thirty patients are recruited meeting the following criteria:
In a screening interview, vital signs are recorded, and information is collected on any medications the patient is currently taking, previous and current treatments for cold sores, severity and duration of cold sores.
Upon entering the study, patients are sensitized to squaric acid dibutyl ester (SADBE) by dipping a cotton-tipped swab in a 2% solution of SADBE in DMSO and swabbing a 1 cm^2 area on the forearm. Participants are told then to wait at least 2 weeks for their first treatment.
Throughout the study, the participants are asked to maintain a subject diary, in which they record each day any symptoms they experience, including fever, swelling, pain, redness, itching, burning, the size of any lesions, and any medications taken.
After the 2-week period to allow development of sensitivity to SADBE, upon the beginning of his or her next outbreak (within 72 hours of the first signs of an outbreak), each participant is swabbed at the site of the herpes labialis lesion with a 0.5% solution of SADBE in DMSO.
Upon the next distinct outbreak at least 2 weeks after the previous treatment at visit 2, study diaries are collected. If the diary reflects redness, blistering, or burning greater than 0.5 cm beyond the clinical lesion with the previous SADBE treatment, the dosage of SADBE is decreased to 0.1%. […]

[1] = test system: peripheral blood mononuclear cells; test: PBMC proliferation assay with stimulation by heat inactivated KOS HSV-1 particles; type: cell-based, human; settings: after treatment compared with before treatment; killed KOS HSV-1 particles
Text: At visit 1, before applying SADBE, a blood sample is collected from each patient for use in a peripheral blood mononuclear cell (PBMC) proliferation assay to test immune response to herpes virus.
Two months after visit 2 (the first treatment application of SADBE to an HSV lesion) if the patient has not experienced a recurrence outbreak after visit 2, or one month after visit 3 (the treatment application of SADBE to a lesion of a second outbreak), a blood sample is collected from the patient. The first, pretreatment, blood sample and the second, posttreatment, blood sample are used to conduct PBMC proliferation assays to test immune response to herpes virus before and after treatment.
Venous blood is collected in heparinized test tubes for mononuclear cell isolation prior to treatment and after treatment at the times described above. […]
KOS HSV-1 virus (American Type Culture Collection) is grown in culture in VERO cells and collected. […] The titer of the virus stock is determined. […]
Results are calculated by averaging optical density of the wells in each of the groups. A stimulation index is calculated to reflect the proliferation in the wells stimulated by killed HSV as compared to the positive and negative controls. The average optical absorbance of the positive controls is set as a stimulation index (SI) value of 100 and the average absorbance of the negative controls as a SI value of 0.

[2] = Presensitization and dose finding: DNCB solution in acetone applied to spots on the forearm, DTH rash/erythema observed; type: in vivo, human; settings: for erythema on forearm: sensitized subject
Text: The subject then applied a 0.1%, 0.2%, and 0.3% solutions to separate small spots on the forearm.

[3] = test system: herpes simplex virus type 1; test: Treatment of an individual with frequent and severe cold sores: DNCB solution applied at the site of the HSV lesion on the lower lip; type: in vivo, human
Text: The individual treated was one of the inventors. They are a person and was […] at the time of this treatment. The subject suffered from frequent cold sores on the lower lip. The outbreaks typically lasted 7-10 days and frequently longer. The subject had suffered from frequent cold sores most of their life. During the 6 months prior to this treatment, the outbreaks had been almost continuous. After getting over one outbreak, the next outbreak would begin often within a week.
In the morning they washed it off. A mild erythema in the area of the cold sore developed over 2-3 days and lasted a further 5 days, and the cold sore resolved in about 7 days, which was a typical duration for this individual or a slightly shorter duration than normal. […] Each outbreak would begin and completely resolve in one day. […] We think this may be because the immune system was recognizing not just the DNCB but also the herpes virus antigens with this second application. With the greater inflammation, the cold sore outbreak was worse than any of the outbreaks between the first and second DNCB treatments. […] The outbreak seemed to worsen as the inflammation associated with the DTH response worsened, and only lessened when the DTH response subsided.
When the outbreak subsided, the subject went another 6 months without any outbreaks to the present time.
For several months before and for the entire time described herein after the initial DNCB treatment, the subject took no antiviral medicines.

[4] = first treatment, 0.2% DNCB on lower lip
[5] = second treatment, 0.2% DNCB on lower lip
[6] = third treatment, 0.1% DNCB solution

In the case of “GM-CSF: granulocyte monocyte colony stimulating factor, cytokine used as immune response enhancer”, the “fraction of patients responding to treatment compared with antigen alone” value (warts) is given as “larger fraction”.

With CCCCOc1c(OCCCC)c(=O)c1=O [SADBE, squaric acid dibutyl ester] the “duration of outbreaks compared with before treatment” value (herpes labialis) was “last for less time”, the “number of outbreaks compared with before treatment” value (herpes labialis) was “fewer outbreaks than before treatment” and the “stimulation index of PBMC” value [1] was “increased after treatment”.

For O=[N+]([O-])c1ccc(Cl)c([N+](=O)[O-])c1 [DNCB, 1-chloro-2,4-dinitrobenzene], the erythema on forearm ([2]; 0.1% DNCB solution) was “almost no erythema”, the erythema on forearm ([2]; 0.2% DNCB solution) was “mild but easily seen erythema” and the “rash on forearm after presensitizing application” value ([2]; 2% DNCB in acetone, first application, two spots on forearm) was “No rash developed”. For the same compound, the “duration of rash on forearm” value ([2]; 2% DNCB, second application two weeks after sensitizing dose) was 3 weeks, the “rash on forearm after second application” value ([2]; 2% DNCB, two weeks after sensitizing dose, different spots on forearm) was “very strong but localized rash” and the “severity and duration of subsequent outbreaks compared with before” value ([3]; 4 weeks after first treatment with 0.2% DNCB) was “much less severe and of much shorter duration than before”. For the same compound, the “erythema in the area of the cold sore” value ([3]; first treatment, 0.2% DNCB in acetone on lower lip, left on overnight) was “mild erythema”, the “further duration of erythema” value [3, 4] was 5 days and the “time over which erythema developed” value [3, 4] was 2 to 3 days. The “time to resolution of the treated cold sore” value [3, 4] was “about 7 days”, the time without outbreaks ([3]; following second DNCB treatment at the site of a lesion) was 6 months and the time without outbreaks ([3]; following third treatment (0.1% DNCB), to the present time) was 6 months. For the same compound, the “frequency of subsequent outbreaks” value ([3]; next 4 weeks after first treatment with 0.2% DNCB) was “approximately weekly”, the “duration of the treated outbreak” value [3, 5] was “about 7 days” and the “severity of the treated outbreak” value [3, 5] was “as severe or even slightly more severe than a typical outbreak”. For the same compound, the “inflammation and erythema with the application” value ([3]; second treatment, 0.2% DNCB on lower lip, about two months after the first) was “more severe than they had been with the first application”, the “DTH response at the cold sore” value [3, 6] was “moderate DTH response” and the “duration of the treated outbreak” value [3, 6] was “about 10 days”.

For interferon alpha, the “fraction of patients responding to treatment compared with antigen alone” value (warts) is given as “larger fraction”.
